{"source": "patent US20100160268A1", "about": "“Isoflavonoid Analogs and their Metal Conjugates as Anti-Cancer Agents” (priority 2005, published 2010)", "key": {"[1]": {"tested_on": "MCF-7, T47D, BT20, MDA-MB231, PC3, BxPC3, COLO357 cancer cell lines", "assay": "MTT assay, panel of breast, prostate and pancreatic cancer cell lines", "type": "cell-based", "details": "in words", "method": "(§1) The compounds were tested in multiple panels of breast (MCF-7, T47D, BT20 and MDA-MB231), prostate (PC3), and pancreatic (BxPC3, COLO357) cancer cell lines, using the dye 3-[4,5 dimethylthiazol-2-yl]-2,5 diphenyltetrazolium bromide (MTT assay) according to a method described in Banerjee, et al., Cancer Research, Vol. 62, page 4945 (2002).\nMore specifically, the tumor cell lines MCF-7, MDA-MB 231 and COLO 357 were maintained in Dulbecco's modifed Eagle's medium (DMEM) with phenol red. Cell lines T47D, BT20, PC3 and BxPC3 were routinely cultured in RPMI medium, each medium being supplemented with Penicillin (50 U/ml), Streptomycin (50 μg/ml) and 10% fetal calf serum (FCS) (Gibco, Myclone). The cell lines were cultured in a humidified incubator in an atmosphere of 5% CO2 and were maintained in continuous exponential growth by twice a week passage.\nAdherent cells at a logarithmic phase were detached by addition of 2-3 ml of trypsin (Gibco), 0.02% EDTA mixture and incubation at 37° C. Cells were plated (100 μL per well) in 48 well flat bottom microtiter plates at densities of 2000 to 5000 per cm^2 (MCF-7, […], T47D, BT20, PC3, BxPC3, COLO357) cells per well. Cells were incubated for 24 h at 37° C. to resume exponential growth. […] Cell proliferation was evaluated after 72h by means of MTT assay."}, "COLO 357 cells": {"tested_on": "COLO 357 cells", "assay": "Orthotopic pancreatic tumor model", "type": "in vivo", "source_text": "Since the NF-κB pathway is regulated by Akt protein, the effects of the FPA-124 on NF-κB activity was studied in an in vivo experiment, specifically the well-established orthotopic pancreatic tumor model using COLO 357 cells."}, "[2]": {"tested_on": "breast cancer cell line (T47D)", "assay": "Propidium iodide / Hoechst 33342 fluorescence microscopy for apoptosis", "type": "cell-based", "method": "To provide further evidence of apoptosis, we carried out […] using a mixture of propidium iodide (PI) and Hoechst dye 33342 to determine the integrity of cell membranes of cancer cells. The quantification of the apoptosis was carried out by cell count after staining with PI followed by visualization of treated cells by fluorescence analysis. The fluorescent dyes PI and Hoechst 33342 were added to the cell culture medium after treatment with the test compounds (10 μM) for 48 h at a final concentrations of 10 μg/ml (PI dye) and Hoechst 33342 (1 μg/ml), respectively. After 5 minutes at 37° C. the cells were placed under a fluorescence microscope (Nikon Optiphot) with a filter block giving excitation at 380 nm and 480 nm."}, "NF-κB": {"tested_on": "NF-κB", "assay": "EMSA of NF-κB in tumor tissue of orthotopic pancreatic model", "type": "in vivo, mice", "method": "The redox sensitive transcription factor NF-κB, is downstream of the Akt kinase protein and plays major role in the cell proliferation and metastasis and resistance in major cancers such as breast, prostate and pancreatic. […] Nuclear proteins were extracted from the tumor tissue as described previously (see, for example, Banerjee, et al., Cancer Research, Vo. 65, p. 9064 (2005)) and kept at −70° C. until use. Protein concentration was determined using the bicinchonic acid assay kit with BSA as the standard (Pierce Chemical Co., Rockford, Ill.). The incubation mixture included 25 mM DTT and 2.5% Tween 20 in a binding buffer. The DNA-protein complex formed was separated from free oligonucleotide on 8.0% native polyacralyamide gel using buffer containing 50 mM Tris, 200 mm glycine, pH 8.5, and 1 mM EDTA, and then visualized by Odyssey Infrared Imaging System using Odyssey Software Release 1.1.\nHowever, there were significant differences in the pattern of necrosis, inflammatory response and fibrosis among these two groups. […] The viable tumor cells form large nests or sheets with minimal stromal fibrosis and inflammatory infiltrates. […] Only 20% of the mass was viable. The viable neoplastic cells form small nests of clusters associated with extensive stromal fibrosis and inflammatory infiltrates (See, FIG. 10c). […]"}, "tumor cells": {"tested_on": "tumor cells", "assay": "Incubation with copper conjugate at IC50 concentration, viability and apoptosis (data not shown)", "type": "cell-based"}, "[3]": {"tested_on": "vascular endothelial growth factor (VEGF) in BxPC3 cells", "assay": "In vitro expression of VEGF (ELISA)", "type": "cell-based, human", "details": "10 μM, 20 μM, 72 h", "method": "BxPC3 cells (0.1×10^6/well) were plated into 6-well plates and incubated in supplemented RPMI containing 10% FBS."}, "[4]": {"tested_on": "Akt, p-Akt and PARP in PC3 cells", "assay": "Western blot of Akt, p-Akt and PARP", "type": "cell-based, human", "details": "10 and 20 μM, 72 h", "method": "Control cells were incubated in the medium with Na2CO3 using same time point. After incubation the cells were lysed with This-HCl (62.5 mm) and 2% SDS. Protein concentration was then measured using […] protein assay (Pierce Chemical Co., Rockford, Ill.). Cell extracts were subjected to 10% SDS-PAGE and electrophoretically transferred to nitrocellulose membrane. Membranes were then incubated with monoclonal anti-Akt (epitome: amino acids 345-480 of Akt1, 1:500; Ontogeny, 26. San Diego, Calif.), anti-phosphor-Akt Ser473 (1:1000; Cell Signaling, Beverly, Mass.), primary monoclonal anti-PARP antibody (1:5000; Biomol, Plymouth Meeting, Pa.) and anti-β-actin (1:5000; Sigma) antibodies, washed with TTBS, and incubated with secondary antibody conjugated with peroxidase. The signal was then detected using the chemiluminescent detection system (Pierce, Rockford, Ill.)."}, "[5]": {"tested_on": "Colo357, BxPC3, BT20, and PC3 cells", "assay": "Cell Death Detection ELISA apoptosis assay", "type": "cell-based", "details": "FIG. 15, among FPA-124, FPA-125, FPA-127", "method": "To determine whether the metal conjugates induce apoptosis in tumor cells, quantitative evaluation of apoptosis was carried out with a Cell Death Detection ELISA kit (Roche, Palo Alto, Calif.). Apoptosis was detected according to the protocol supplied by the manufacturer.\nSince all copper compounds are redox active metal conjugates, we believe that redox triggered oxidative stress may be one of the underlying mechanisms for the observed apoptotic cell death in the present case. […] This observation is also in accordance with the favorable distortion factor calculated for the present copper compounds using EPR spectra, which factor helps stabilize cuprous and cupric species without dissociation of the conjugate."}, "[6]": {"tested_on": "BT20, PC3, Colo357 and BxPC3 cancer cell lines", "assay": "MTT cell proliferation assay, four cell lines", "type": "cell-based", "details": "text b152; read-out: IC50 values in multiple cancer cell lines", "method": "as §1\nAdherent cells at a logarithmic phase were detached by addition of 2-3 ml of trypsin (Gibco), 0.02% EDTA mixture and incubation at 37° C. Cells were plated (100 μL per well) in 48 well flat bottom microtiter plates at densities of 2000 to 5000 per cm^2 (MCF-7, […], T47D, BT20, PC3, BxPC3, COLO357) cells per well. Cells were incubated for 24 h at 37° C. to resume exponential growth. The test compounds were dissolved in DMSO (final concentration 0.1%) and added to the cells 24 h after seeding at varying concentrations. Control wells containing the culture medium, were included in each experiment. Cell proliferation was evaluated after 72h by means of MTT assay.\nThe biological effects of these compounds were studied against the hormone independent breast (BT20) and prostate (PC3) cancers as well as K-ras positive (Colo357) and K-ras negative (BxPC3) pancreatic cancer cell lines."}, "[7]": {"details": "FPA-102 25 mg/kg i.v. on alternate days"}}, "data": [{"smiles": "CC(=O)C1CCC2C3CCC4=CC(=NNC(N)=S)CCC4(C)C3CCC12C", "note": "(centres unmarked) [FPA-101, 17-acetyl-10,13-dimethyl-1,2,6,7,8,9,11,12,13,14,15,16,17-tetradecahydrocyclopenta[a]phenanthren-3-thiosemicarbazone]", "values": [{"measurement": "antiproliferative action against the cell lines tested", "setting": "[1]", "result": "moderate antiproliferative action"}]}, {"smiles": "CC(=O)C1CCC2C3CCC4=CC(=NNC(N)=S)CCC4(C)C3CCC12C.[Cl][Cu][Cl]", "note": "(centres unmarked) [FPA-102]", "values": [{"measurement": "body weight of treated mice (toxicity)", "setting": "COLO 357 cells; [7]", "result": "no significant change in the body weight"}, {"measurement": "tumor burden", "setting": "COLO 357 cells; [7]", "result": "decrease tumor burden"}, {"measurement": "viable part of tumor mass", "setting": "COLO 357 cells; tumor histology of treated mice", "result": 20, "unit": "%"}, {"measurement": "cell morphology after PI/Hoechst staining", "setting": "[2]; IC50 concentration (10 μM), FIG. 7b", "result": "nuclear condensation and membrane damage"}, {"measurement": "potency of inducing apoptosis among the metal conjugates", "setting": "[2]; comparison within series FPA-102 to FPA-104", "result": "highest potency of inducing apoptosis"}, {"measurement": "NF-κB in the tumor tissue (EMSA)", "setting": "NF-κB; treatment for 10 days once every alternate day", "result": "down-regulation of NF-κB"}, {"measurement": "apoptotic cells", "setting": "tumor cells; 24-48 h treatment at IC50 concentration", "result": "~95", "unit": "%"}, {"measurement": "non-viable cells", "setting": "tumor cells; 3 h incubation at IC50 concentration", "result": 40, "unit": "%"}, {"measurement": "VEGF levels", "setting": "[3]", "result": "decrease in the VEGF levels"}, {"measurement": "PARP degradation / cleavage", "setting": "[4]", "result": "induces poly (ADP-ribose) polymerase degradation"}, {"measurement": "phosphor-Akt level", "setting": "[4]", "result": "down regulates"}]}, {"smiles": "NC1=[S+][Cu-2]([Cl])([Cl])[N+](=Cc2coc3ccccc3c2=O)N1", "note": "[FPA-124]", "values": [{"measurement": "body weight of the treated animals (toxicity)", "setting": "COLO 357 cells; FPA-124, FIG. 17a", "result": "no change in the body weight"}, {"measurement": "tumor load", "setting": "COLO 357 cells; FPA-124, FIG. 17b", "result": "decrease in the tumor load"}, {"measurement": "apoptosis by ELISA, ranking", "setting": "[5]", "result": "most active compound"}, {"measurement": "NF-κB activity in the tumor tissue (EMSA)", "setting": "NF-κB; FPA-124, FIG. 17c", "result": "significantly decreased"}]}, {"smiles": "O=c1c(-c2ccc(O)cc2)coc2cc(O)cc(O)c12", "note": "[Genistein, 4,5,7,-trihydroxyisoflavone]", "values": [{"measurement": "IC50", "setting": "[6]", "result": "> 40", "unit": "µM"}]}]}
